Assay results published in ChEMBL document CHEMBL1201862, “PubChem BioAssay data set” (2004).
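Protocol summary: plate cells (96-well), add compound at 5 concentrations, incubate 48 h, interpolate endpoints linearly. The concentration for 50% growth inhibition is given as GI50.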 Calls of active or inactive are those of the source. Rule as the data show it: active = GI50 up to about 1.1 µM and inactive = higher.

How the values were obtained:
Assay in all cases: growth of human tumour cells (NCI), 48 h
[1] = system: A498
[2] = system: A549
[3] = system: COLO 205
[4] = system: DU-145
[5] = system: HOP-62
[6] = system: Hs-578T
[7] = system: IGROV-1
[8] = system: KM12
[9] = system: MCF7
[10] = system: MDA-MB-231
[11] = system: MDA-N
[12] = system: MOLT-4
[13] = system: NCI/ADR-RES
[14] = system: OVCAR-3
[15] = system: OVCAR-8
[16] = system: PC-3
[17] = system: SF-539
[18] = system: SK-MEL-2
[19] = system: SW-620
[20] = system: UACC-62

Measured: GI50

CCc1nc(N)nc(N)c1-c1ccc(Cl)cc1 [PYRIMETHAMINE]
inactive: [1] 13.3 µM | [2] 1.47 µM | [3] 18.9 µM | [4] 18.7 µM | [5] 13.4 µM | [6] > 58.2 µM | [7] 9.86 µM | [8] 11.6 µM | [9] 11.1 µM | [10] 9.25 µM | [11] 4.83 µM | [12] 4.84 µM | [13] 30.9 µM | [14] 32 µM | [15] 5.79 µM | [16] 6.5 µM | [17] 20.7 µM | [18] 38.4 µM | [19] 5.61 µM | [20] 4.72 µM

Clc1cccc(C2ON=C(c3ccccc3)N2C23CC4CC(CC(C4)C2)C3)c1Cl (stereo not given)
inactive: [1] > 10 µM | [2] > 10 µM | [3] > 10 µM | [4] > 10 µM | [5] > 10 µM | [6] > 10 µM | [7] > 10 µM | [8] > 10 µM | [9] > 10 µM | [10] > 10 µM | [11] > 10 µM | [12] > 10 µM | [13] > 10 µM | [14] > 10 µM | [15] > 10 µM | [16] 6.41 µM | [17] > 10 µM | [18] > 10 µM | [19] > 10 µM | [20] > 10 µM

Cc1ccc(C(=O)Nc2ccc(S(=O)(=O)O)c3cc(S(=O)(=O)O)cc(S(=O)(=O)O)c23)cc1NC(=O)c1cccc(NC(=O)Nc2cccc(C(=O)Nc3cc(C(=O)Nc4ccc(S(=O)(=O)O)c5cc(S(=O)(=O)O)cc(S(=O)(=O)O)c45)ccc3C)c2)c1 [SURAMIN]
inactive: [1] > 84.3 µM | [2] 56.4 µM | [3] > 72.9 µM | [4] > 100 µM | [5] > 100 µM | [6] > 100 µM | [7] 69.3 µM | [8] > 67.5 µM | [9] > 100 µM | [10] > 100 µM | [11] > 100 µM | [12] > 80 µM | [13] > 100 µM | [14] > 93.3 µM | [15] 74.8 µM | [16] > 100 µM | [17] > 100 µM | [18] 58.9 µM | [19] 89.3 µM | [20] 54.6 µM

C=CCOC1(CC=C)C(=O)OC2C(O)COC21O (stereo not given)
inactive: [1] > 100 µM | [2] > 100 µM | [3] > 100 µM | [4] > 100 µM | [5] > 100 µM | [6] > 100 µM | [7] > 100 µM | [8] > 100 µM | [9] > 100 µM | [10] > 100 µM | [11] > 100 µM | [12] > 100 µM | [13] > 100 µM | [14] > 100 µM | [15] > 100 µM | [16] > 100 µM | [17] > 100 µM | [18] > 100 µM | [19] > 100 µM | [20] > 100 µM

COCn1cc(C2=C(C)C(=O)C(C)=C(C)C2=O)cn1
inactive: [1] > 100 µM | [2] > 100 µM | [3] > 100 µM | [4] > 100 µM | [5] > 100 µM | [6] > 100 µM | [7] > 100 µM | [8] > 100 µM | [9] > 100 µM | [10] 18.6 µM | [11] 48.6 µM | [12] 14.9 µM | [13] 26.2 µM | [14] 19.5 µM | [15] 21.1 µM | [16] > 100 µM | [17] > 100 µM | [18] > 100 µM | [19] > 100 µM | [20] > 100 µM

Cc1ccc2[nH]c3c(c2c1)C1CCC(C(C)(C)C)CC1C1C(=O)N(c2ccc4c(c2)OCO4)C(=O)C31 (stereo not given)
inactive: [1] 1.83 µM | [2] 2.31 µM | [3] 3.31 µM | [4] 2.99 µM | [5] 1.91 µM | [6] 1.55 µM | [7] 2.45 µM | [8] 5.25 µM | [9] 3.24 µM | [10] 2.29 µM | [11] 5.41 µM | [12] 1.81 µM | [13] 3.1 µM | [14] 1.52 µM | [15] 1.97 µM | [16] 3.07 µM | [17] 1.35 µM | [18] 7.18 µM | [19] 2.63 µM | [20] 10.8 µM

O=C1CC(=O)NC(NN2C(=O)CSC2c2ccc(Cl)c(Cl)c2)=N1 (stereo not given)
inactive: [1] > 100 µM | [2] > 100 µM | [3] > 100 µM | [4] > 100 µM | [5] > 100 µM | [6] > 100 µM | [7] 50.9 µM | [8] 42.7 µM | [9] > 100 µM | [10] > 100 µM | [11] 82.8 µM | [12] 23.3 µM | [13] > 100 µM | [14] > 100 µM | [15] > 100 µM | [16] > 100 µM | [17] > 100 µM | [18] > 100 µM | [19] > 100 µM | [20] 42.6 µM
